Our source for the IC50 values is patent US9296745B2, “Diacylglycerol acyltransferase 2 inhibitors” (Pfizer Inc., priority 2012, dated 2016).

Chain of Human DGAT2 (hDGAT2) (Q96PD7 whole entry): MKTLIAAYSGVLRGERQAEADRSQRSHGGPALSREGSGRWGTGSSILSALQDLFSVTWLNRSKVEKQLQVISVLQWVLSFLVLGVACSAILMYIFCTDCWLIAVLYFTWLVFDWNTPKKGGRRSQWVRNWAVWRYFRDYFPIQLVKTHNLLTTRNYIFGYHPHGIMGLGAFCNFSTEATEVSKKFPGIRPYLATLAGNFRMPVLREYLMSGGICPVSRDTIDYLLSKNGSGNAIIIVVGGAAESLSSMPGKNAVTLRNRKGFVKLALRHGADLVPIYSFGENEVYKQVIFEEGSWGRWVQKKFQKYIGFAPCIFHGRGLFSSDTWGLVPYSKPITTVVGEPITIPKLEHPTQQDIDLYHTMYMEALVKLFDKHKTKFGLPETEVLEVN

In the assay the target is Human DGAT2 (hDGAT2) (Homo sapiens (Human), UniProt Q96PD7). As to the kind of experiment: In vitro DGAT2 assay, IC50 determination with hDGAT2 membrane fraction. Format: biochemical. To be noted: geometric mean; background for complete inhibition of DGAT2 obtained with 50 μM (1R,2R)-2-({3′-Fluoro-4′-[(6-fluoro-1,3-benzothiazol-2-yl)amino]-1,1′-biphenyl-4-yl}carbonyl)cyclopentanecarboxylic acid; read-out: DGAT2 IC50. The essentials:
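CHAPS-solubilized membrane fraction of FLAG-tagged hDGAT2 from baculovirus-infected SF9 cells (0.01 mg/mL) in 100 mM Hepes-NaOH pH 7.4, 20 mM MgCl2, 200 nM methyl arachidonyl fluorophosphonate; compounds pre-incubated 20 min with 0.04% BSA. Reaction 40 min at room temperature, stopped with H3PO4. [^14C]tridecanoylglycerol in organic phase counted; 11-point geometric mean IC50.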
`O=C([C@@H]1CCCN(c2ccc3nc(-c4nc(C5CC5)cs4)[nH]c3n2)C1)N1CCCC1` [Example 84, (R)-(1-(2-(4-Cyclopropylthiazol-2-yl)-3H-imidazo[4,5-b]pyridin-5-yl)piperidin-3-yl)(pyrrolidin-1-yl)methanone]: the IC50 amounted to 9.55 nM.
With `O=C([C@@H]1CCCN(c2ccc3nc(C4(Cc5ccccc5)COC4)[nH]c3n2)C1)N1CCCC1` [Example 85, (R)-(1-(2-(3-Benzyloxetan-3-yl)-3H-imidazo[4,5-b]pyridin-5-yl)piperidin-3-yl)(pyrrolidin-1-yl)methanone], the IC50 is 1160 nM.
In the case of `Cc1cc(C2(c3nc4ccc(N5CCC[C@@H](C(=O)N6CCCC6)C5)nc4[nH]3)CC2)on1` [Example 86, (R)-(1-(2-(1-(3-Methylisoxazol-5-yl)cyclopropyl)-3H-imidazo[4,5-b]pyridin-5-yl)piperidin-3-yl)(pyrrolidin-1-yl)methanone] it was 288 nM; in that of `Cc1cc(C2(c3nc4ccc(N5CCC[C@@H](C(=O)N6CCCC6)C5)nc4[nH]3)CC2)no1` [Example 87, (R)-(1-(2-(1-(5-Methylisoxazol-3-yl)cyclopropyl)-3H-imidazo[4,5-b]pyridin-5-yl)piperidin-3-yl)(pyrrolidin-1-yl)methanone], 102 nM.
Regarding `O=C([C@@H]1CCCN(c2ccc3nc(C4(c5cccnc5)CCC4)[nH]c3n2)C1)N1CCCC1` [Example 88, (R)-(1-(2-(1-(Pyridin-3-yl)cyclobutyl)-3H-imidazo[4,5-b]pyridin-5-yl)piperidin-3-yl)(pyrrolidin-1-yl)methanone], the IC50 came out at 190 nM.
In the case of `Cc1ccn(C2(c3nc4ccc(N5CCC[C@@H](C(=O)N6CCCC6)C5)nc4[nH]3)CC2)n1` [Example 89, (R)-(1-(2-(1-(3-Methyl-1H-pyrazol-1-yl)cyclopropyl)-3H-imidazo[4,5-b]pyridin-5-yl)piperidin-3-yl)(pyrrolidin-1-yl)methanone] it was 546 nM; in that of `Cc1ccnn1C1(c2nc3ccc(N4CCC[C@@H](C(=O)N5CCCC5)C4)nc3[nH]2)CC1` [Example 90, (R)-(1-(2-(1-(5-methyl-1H-pyrazol-1-yl)cyclopropyl)-3H-imidazo[4,5-b]pyridin-5-yl)piperidin-3-yl)(pyrrolidin-1-yl)methanone], 315 nM; in that of `COc1ccccc1C1(c2nc3ccc(N4CCC[C@@H](C(=O)N5CCCC5)C4)nc3[nH]2)CC1` [Example 92, (R)-(1-(2-(1-(2-Methoxyphenyl)cyclopropyl)-3H-imidazo[4,5-b]pyridin-5-yl)piperidin-3-yl)(pyrrolidin-1-yl)methanone], 242 nM.
Consider `O=C([C@@H]1CCCN(c2ccc3nc(C4(c5ccon5)CC4)[nH]c3n2)C1)N1CCCC1` [Example 93, (R)-(1-(2-(1-(Isoxazol-3-yl)cyclopropyl)-3H-imidazo[4,5-b]pyridin-5-yl)piperidin-3-yl)(pyrrolidin-1-yl)methanone], for which the IC50 turned out to be 202 nM.
In the case of `CCOC(=O)c1cc(OC)nc(-c2nc3ccc(N4CCC[C@@H](C(=O)N5CCCC5)C4)nc3[nH]2)c1` [Example 96, (R)-Ethyl 2-methoxy-6-(5-(3-(pyrrolidine-1-carbonyl)piperidin-1-yl)-3H-imidazo[4,5-b]pyridin-2-yl)isonicotinate] it was 37.3 nM; in that of `Cc1cccc(C2(c3nc4ccc(N5CCC[C@@H](C(=O)N6CCCC6)C5)nc4[nH]3)CC2)c1` [Example 97, (R)-Pyrrolidin-1-yl(1-(2-(1-m-tolylcyclopropyl)-3H-imidazo[4,5-b]pyridin-5-yl)piperidin-3-yl)methanone], 96.9 nM; in that of `O=C([C@@H]1CCCN(c2ccc3nc(-c4cc(C5CC5)ccn4)[nH]c3n2)C1)N1CCCC1` [Example 98, (R)-(1-(2-(4-Cyclopropylpyridin-2-yl)-3H-imidazo[4,5-b]pyridin-5-yl)piperidin-3-yl)(pyrrolidin-1-yl)methanone], 94.4 nM.
In the case of `O=C([C@@H]1CCCN(c2ccc3nc(-c4nccc(C5CC5)n4)[nH]c3n2)C1)N1CCCC1` [Example 99, (R)-(1-(2-(4-Cyclopropylpyrimidin-2-yl)-3H-imidazo[4,5-b]pyridin-5-yl)piperidin-3-yl)(pyrrolidin-1-yl)methanone] it was 72.5 nM; in that of `CNS(=O)(=O)c1cncc(-c2nc3ccc(N4CCC[C@@H](C(=O)N5CCCC5)C4)nc3[nH]2)c1` [Example 100, (R)-N-Methyl-5-(5-(3-(pyrrolidine-1-carbonyl)piperidin-1-yl)3H-imidazo[4,5-b]pyridin-2-yl)pyridine-3-sulfonamide], 47.8 nM; in that of `O=C([C@@H]1CCCN(c2ccc3nc(-c4cncc(C5CC5)n4)[nH]c3n2)C1)N1CCCC1` [Example 101, (R)-(1-(2-(6-Cyclopropylpyrazin-2-yl)-3H-imidazo[4,5-b]pyridin-5-yl)piperidin-3-yl)(pyrrolidin-1-yl)methanone], 60.5 nM.
In the case of `COc1cccc(C2(c3nc4ccc(N5CCC[C@@H](C(=O)N6CCCC6)C5)nc4[nH]3)CC2)c1` [Example 102, (R)-(1-(2-(1-(3-Methoxyphenyl)cyclopropyl)-3H-imidazo[4,5-b]pyridin-5-yl)piperidin-3-yl)(pyrrolidin-1-yl)methanone] it was 99.6 nM.
As to `Cc1ccc(C2(c3nc4ccc(N5CCC[C@@H](C(=O)N6CCCC6)C5)nc4[nH]3)CC2)cc1` [Example 103, (R)-Pyrrolidin-1-yl(1-(2-(1-(p-tolyl)cyclopropyl)-3H-imidazo[4,5-b]pyridin-5-yl)piperidin-3-yl)methanone], the IC50 was 73.7 nM.
In the case of `Cn1nccc1C1(c2nc3ccc(N4CCC[C@@H](C(=O)N5CCCC5)C4)nc3[nH]2)CC1` [Example 104, (R)-(1-(2-(1-(1-Methyl-1H-pyrazol-5-yl)cyclopropyl)-3H-imidazo[4,5-b]pyridin-5-yl)piperidin-3-yl)(pyrrolidin-1-yl)methanone] it was 190 nM; in that of `CCOC(=O)c1cc(CC)nc(-c2nc3ccc(N4CCC[C@@H](C(=O)N5CCCC5)C4)nc3[nH]2)c1` [Example 105, (R)-Ethyl 2-ethyl-6-(5-(3-(pyrrolidine-1-carbonyl)piperidin-1-yl)-3H-imidazo[4,5-b]pyridin-2-yl)isonicotinate], 28.9 nM; in that of `O=C([C@@H]1CCCN(c2ccc3nc(C4(c5ccc(C(F)(F)F)cc5)CC4)[nH]c3n2)C1)N1CCCC1` [Example 106, (R)-Pyrrolidin-1-yl(1-(2-(1-(4-(trifluoromethyl)phenyl)cyclopropyl)-3H-imidazo[4,5-b]pyridin-5-yl)piperidin-3-yl)methanone], 5.68 nM.
As for `O=C([C@@H]1CCCN(c2ccc3nc(-c4cncc(C5CC5)n4)[nH]c3n2)C1)N1CCOCC1` [Example 107, (R)-(1-(2-(6-Cyclopropylpyrazin-2-yl)-3H-imidazo[4,5-b]pyridin-5-yl)piperidin-3-yl)(morpholino)methanone], the IC50 was 153 nM.
In the case of `COC(=O)Cc1cccc(-c2nc3ccc(N4CCC[C@@H](C(=O)N5CCCC5)C4)nc3[nH]2)c1` [Example 110, (R)-Methyl 2-(3-(5-(3-(pyrrolidine-1-carbonyl)piperidin-1-yl)-3H-imidazo[4,5-b]pyridin-2-yl)phenyl)acetate] it was 41.5 nM; in that of `O=C([C@@H]1CCCN(c2ccc3nc(-c4cccc(C5(O)COC5)n4)[nH]c3n2)C1)N1CCCC1` [Example 111, (R)-(1-(2-(6-(3-Hydroxyoxetan-3-yl)pyridin-2-yl)-3H-imidazo[4,5-b]pyridin-5-yl)piperidin-3-yl)(pyrrolidin-1-yl)methanone], 697 nM.
In the case of `O=C([C@@H]1CCCN(c2ccc3nc(-c4cccc(C(F)(F)F)n4)[nH]c3n2)C1)N1CCCC1` [Example 112, (R)-Pyrrolidin-1-yl(1-(2-(6-(trifluoromethyl)pyridin-2-yl)-3H-imidazo[4,5-b]pyridin-5-yl)piperidin-3-yl)methanone] it was 9.23 nM; in that of `O=C([C@@H]1CCCN(c2ccc3nc(-c4cncc(F)c4)[nH]c3n2)C1)N1CCCC1` [Example 113, (R)-(1-(2-(5-Fluoropyridin-3-yl)-3H-imidazo[4,5-b]pyridin-5-yl)piperidin-3-yl)(pyrrolidin-1-yl)methanone], 137 nM; in that of `NS(=O)(=O)c1cccc(-c2nc3ccc(N4CCC[C@@H](C(=O)N5CCCC5)C4)nc3[nH]2)c1` [Example 114, (R)-3-(5-(3-(Pyrrolidine-1-carbonyl)piperidin-1-yl)-3H-imidazo[4,5-b]pyridin-2-yl)benzenesulfonamide], 90.3 nM.
In the case of `CC(C)(O)c1cccc(-c2nc3ccc(N4CCC[C@@H](C(=O)N5CCCC5)C4)nc3[nH]2)n1` [Example 115, (R)-(1-(2-(6-(2-Hydroxypropan-2-yl)pyridin-2-yl)-3H-imidazo[4,5-b]pyridin-5-yl)piperidin-3-yl)(pyrrolidin-1-yl)methanone] it was 67.9 nM; in that of `O=C([C@@H]1CCCN(c2ccc3nc(-c4ccccc4)[nH]c3n2)C1)N1CCCC1` [Example 116, (R)-(1-(2-Phenyl-3H-imidazo[4,5-b]pyridin-5-yl)piperidin-3-yl)(pyrrolidin-1-yl)methanone], 66.2 nM.
In the case of `O=C([C@@H]1CCCN(c2ccc3nc(-c4coc(C5CC5)n4)[nH]c3n2)C1)N1CCCC1` [Example 118, (R)-(1-(2-(2-Cyclopropyloxazol-4-yl)-3H-imidazo[4,5-b]pyridin-5-yl)piperidin-3-yl)(pyrrolidin-1-yl)methanone], the IC50 came out at 301 nM.
In the case of `CN(C)c1cccc(-c2nc3ccc(N4CCC[C@@H](C(=O)N5CCCC5)C4)nc3[nH]2)n1` [Example 119, (R)-(1-(2-(6-(Dimethylamino)pyridin-2-yl)-3H-imidazo[4,5-b]pyridin-5-yl)piperidin-3-yl)(pyrrolidin-1-yl)methanone] it was 22.2 nM.
